The values below come from US8802635B2, “Antioxidant, anti-inflammatory, anti-radiation, metal chelating compounds and uses thereof” (Oneday—Biotech And Pharma Ltd., priority 2011, dated 2014).

Non-standard residues stand in square brackets, D forms with d. βAla = NCCC(=O)O

In one test the test system is NF-κB. Briefly: Nuclear translocation of NF-κB in lung, zymosan-induced inflammation. The format is in vivo, mice. Particulars: lung tissue, 24 hours after zymosan; i.p. dosing as Example 3; p<0.05. The method, then:
(§1) Male BALB/c mice were randomly allocated into the following experimental groups:
(§2) The peptides were administered by an intraperitoneal (i.p.) route of administration as described in Example 3.
(§3) The peptides were formulated in D5W as described in Example 3. The vehicle control was D5W.
(§4) At 24 hours after administration of zymosan, animals were euthanized and assessed for inflammation by an NF-κB analysis of lung tissue.
Tissues were homogenized and nuclear extracts prepared via centrifugation. […]

In the next test the test system is IkappaBalpha. Briefly: Cytoplasmic stability of I-kappaBalpha in lung, zymosan-induced inflammation. The format is in vivo, mice. As to conditions: lung tissue, 24 hours after zymosan. The method, then:
as §1, §2, §3, §4
Tissues were homogenized and nuclear extracts prepared via centrifugation. ELISA for IkappaBalpha was performed, using a series of standards in order to define absolute concentrations.

In the next test the test system is p38 MAP Kinase. Put plainly: Inhibition of oxidative stress (auranofin)-induced p38 phosphorylation in SH-SY5Y cells. The format is cell-based, Human. As to conditions: auranofin 5 μM. The procedure:
Human neuroblastoma SH-SY5Y cells were maintained in Dulbecco's modified Eagle's medium (DMEM, Invitrogen) supplemented with 10% fetal bovine serum (Invitrogen), 100 μg/ml streptomycin and 100 U/ml penicillin G (Gibco). Cells were plated at a density of 6.25×10^4/cm^2 and incubated for 24 hours, after which they were exposed to different treatments.
SH-SY5Y cells were plated on 96-well plates and treated with Auranofin (AuF) (5 μM) for 30 min. Then the cells were washed with PBS and treated with either one of the peptides at the indicated concentrations. Twenty-four hours later, the cells were fixed with glutaraldehyde in final concentration of 0.5% for 10 min. Cells were washed 3 times with DDW dried over night, and washed once with borate buffer (0.1M, pH 8.5). The fixed cells were stained with 200 μl of 1% methylene blue dissolved in borate buffer for 1 hour. After extensive washing and drying, the color was extracted with 200 μl of 0.1 M HCl for 1 h at 37° C. and absorbance was read in spectrophotometer at 630 nm.
Twenty to thirty micrograms of protein samples were loaded on 10-12% SDS-PAGE gels. The proteins were then transferred electrophoretically to nitrocellulose (Whatman, Germany). The blots were blocked by incubation for 1 h at room temperature (RT) in TBS-T (25 mM Tris-HCl pH 7.4, 0.9% NaCl and 0.02% Tween-20) with 4% Difco skim milk (BD, USA), and incubated over-night at 4° C. with the primary antibody: pERK1/2 (Thr 202/Tyr204), mouse mAb, (1:6,000); p-SAPK/JNK (Thr183/Tyr185), rabbit mAb; SAPK/JNK, mouse mAb; p-p38MAP Kinase (Thr180/Tyr182), rabbit mAb; cleaved caspase 3, rabbit mAb. All antibodies were from Cell Signaling Tech. USA, used at 1:1000. Purified b Catenin, mouse mAb, (1:10,000; BD Transduction Laboratories, USA) diluted in 5% BSA, 0.04% Azide in TBS-T. Proteins were detected with Anti-Mouse or Anti-Rabbit IgG-HRP linked antibody (1:10,000; Cell Signaling, Tech. USA).

A further test concerns anti-OVA serum IgE. Put plainly: Ovalbumin-induced hypersensitivity: serum anti-OVA IgE. The format is in vivo, mice. As to conditions: for effect on OVA-induced elevation of anti-OVA serum IgE titer (in words) / rank order of reduction of anti-OVA serum IgE titer: 125 mg/kg i.p. on days 13, 14, 15, blood day 16. The procedure: Male BALB/c mice (6-8 weeks old) were housed under specific pathogen-free conditions and maintained on a 12-hour light/dark cycle, with food and water ad libitum. All materials and drugs were obtained from Sigma, Inc.
Mice in Groups A, B, C, and E (n=10 per group) were sensitized with intraperitoneal (i.p.) 200 μl of sterile PBS containing 100 μg ovalbumin (OVA) and 1.6 mg alum on days 0 and 7, and challenged with intraperitoneal (i.p.) 200 μl of sterile PBS containing 10 μg ovalbumin (OVA) on day 14 in order to induce an experimental model of allergic peritonitis. Mice in Group F (n=10) were injected with intraperitoneal (i.p) 200 μl sterile PBS (“sham” group, no OVA and no Alum).
Mice in Groups A, B, and C, were treated with 150 μl of sterile PBS containing peptides DY-66, DY-65 and DY-70, respectively, at a dose of 125 mg/kg on days 13, 14, and 15 via an i.p. route of administration.
Mice in Groups E and F were treated with 150 μl of sterile PBS on days 13, 14, and 15 via an i.p. route of administration. On day 14 the test articles (or PBS vehicle) were injected 30 minutes before injecting the OVA.
Blood taken on day 16 was tested for 1) serum anti-OVA IgE, 2) white blood cell count and differential (including absolute and percentage of eosinophils count). Serum was frozen at −80° C. for future optional blood tests.

The test system of test [1] is granulocytes at the peritoneal lavages. Put plainly: Ovalbumin-induced hypersensitivity: percentage of granulocytes in peritoneal lavage (FACS). The format is in vivo, mice. As to conditions: 125 mg/kg; Mann-Whitney with Bonferroni correction, p<=0.0125. The method, then:
Hypersensitivity was induced as described in Example 5. The mice were treated according to the above protocol with PBS alone (“PBS”, no OVA and no Alum), OVA (“OVA”), OVA+CB3 104 mg/kg, OVA+DY-66 83 mg/kg and OVA+DY-66 125 mg/kg. In all groups, 9 mice were used except for OVA+DY-66 83 mg/kg, where 10 mice were used.
At day 16 the animals were sacrificed, the peritoneum was washed with 4-5 ml of sterile PBS, centrifuged and the cells were re-suspended in sterile PBS containing FCS 2%.
Percentage of granulocytes at the peritoneal lavages were measured by the use of FACS machine analysis of all cells during 10 second flow, followed by a careful analysis of the FACS dot plots.

Another test deals with ROS. Put plainly: ROS levels in C57Bl/6 mice after LPS injection. The format is in vivo. As to conditions: 6 h after LPS. The procedure: C57BL/6 female mice (7-8 weeks old) were injected i.p. with the peptide or PBS on days −3, −2, −1 at a dose of 50 mg/kg or with PBS alone (6 mice in each group). On day zero all the mice were injected i.p. with 200 μg/mouse of LPS and 45 min. later they were injected i.p. with 150 mg/kg of the peptide. Another group of 3 mice served as normal untreated mice. […]

Test [2] is described as follows: Metal chelation: copper binding by mass spectra (ESI). As to conditions: 0.83 mM peptide, 1.66 mM CuSO4, 1 hour room temperature. The procedure:
(§5) All five peptides were examined for their ability to bind copper and ferric ions. 0.83 mM of each peptide were mixed with 1.66 mM of either FeCL3 or CuSO4. The mixtures were incubated for 1 hour at room temperature and further kept at ° 4 C until analysis. Samples were analyzed by mass spectra (ESI).

Test [3] is described as follows: Metal chelation: ferric ion binding by mass spectra (ESI). Particulars: 0.83 mM peptide, 1.66 mM FeCL3, 1 hour room temperature. The method, then: as §5

For the substance “N-acetyl-Cys-βAla-His-Cys-NH2 (Ac-C[βAla]HC-NH2; cysteine pairing not given here) [DY-66]”, the “inhibition of the increase in nuclear p65 translocation” value in the test with NF-κB was “ca. 80%”. Besides, the “rank order of efficacy on cytoplasmic IkappaBalpha” value in the test with IkappaBalpha is “DY-70>DY-65>DY-66”. For the same substance, half-maximal inhibition in the test on p38 MAP Kinase (IC50) was put at 67 µM. Besides, in the test with anti-OVA serum IgE, the “effect on OVA-induced elevation of anti-OVA serum IgE titer (in words)” value is listed as “significantly reduced the elevation” and the “rank order of reduction of anti-OVA serum IgE titer” value is recorded as “DY-65>DY-70>DY-66”. In test [1], the “difference in percentage of granulocytes (medians) between OVA and OVA+peptide” value is “highly significant”. The “ROS levels in platelets and RBCs compared to PBS-treated mice (in words)” value in the test with ROS (50 mg/kg i.p. days -3,-2,-1 and 150 mg/kg 45 min after LPS) is “significant reduction in ROS levels”. Further, in the test on ROS (p<0.005), the “ROS level in platelets, % of the level in PBS-treated mice” value is given as “approximately 55%”. Besides, the “ROS level in RBCs, % of the level in PBS-treated mice” value with ROS (p<0.05) is on record as “approximately 75%”. For the same substance, the “copper binding (in words)” value in test [2] was “low degree”. Moreover, the “FeCl binding (in words)” value in test [3] is reported as “binding was observed”.
On to “N-acetyl-Cys-Lys-Met-Cys-NH2 (Ac-CKMC-NH2; cysteine pairing not given here) [DY-65]”, for which the “rank order of efficacy on cytoplasmic IkappaBalpha” value in the test with IkappaBalpha is reported as “DY-70>DY-65>DY-66”. Also, the IC50 in the test on p38 MAP Kinase came out at 36.7 µM. Also, in the test with anti-OVA serum IgE, the “effect on OVA-induced elevation of anti-OVA serum IgE titer (in words)” value is “significantly reduced the elevation” and the “rank order of reduction of anti-OVA serum IgE titer” value is “DY-65>DY-70>DY-66”. Also, in the test with anti-OVA serum IgE (125 mg/kg i.p., % of the OVA-induced elevation), the “greatest reduction of the OVA-induced elevation of anti-OVA serum IgE” value is “ca. 60%”. Moreover, the “copper binding (in words)” value in test [2] was “binding was observed”.
